According to publication PMC7570662, “In Vivo Pharmacokinetic Analysis Utilizing Non-Targeted and Targeted Mass Spectrometry and In Vitro Assay against Transient Receptor Potential Channels of Maobushisaishinto and Its Constituent Asiasari Radix” (Molecules, 2020):

Key:
human TRPA1 = target: T1, human TRPA1 (Homo sapiens, UniProt O75762); assay: Ca2+ influx assay in TRPA1-expressing T-REx-293 cells; type: cell-based; details: 10 µmol/L test compound, relative to 20 µmol/L allyl isothiocyanate; for activation at 10 µM: T-REx-293, read-out: % of Activation Compared to Positive Control against Each Subfamily of TRP Channel TRPA1
T1 construct: Each full-length human TRPA1, TRPV1, TRPV4, and TRPM8 coding regions were introduced into a pcDNA4/TO vector; expressed in transfected cells; host or cells: T-REx-293 cells (tetracycline-induced, pcDNA4/TO vector)
Description: (§1) Each full-length human TRPA1, TRPV1, TRPV4, and TRPM8 coding regions were introduced into a pcDNA4/TO vector (Thermo Fisher Scientific, Waltham, MA, USA) and transfected into T-REx-293 cells (Thermo Fisher Scientific) to obtain stable cell lines expressing human TRPA1, TRPV1, TRPV4, and TRPM8. Cells were cultured in DMEM with 10% FBS, 4 mmol/L L-glutamine, and penicillin/streptomycin.
(§2) Cells were suspended in medium with 1 µg/mL tetracycline and seeded in poly-D-lysine coated 96-well plate at 2.5 × 10^4 cells/well. After overnight culture, the cells were used for Ca^2+ influx assay.
(§3) The Ca^2+ influx assay was performed using a FLIPR Calcium 5 Assay Kit (Molecular Devices, Sunnyvale, CA, USA) according to previously reported methods with minor modifications. In brief, cells were incubated with 80 µL Ca^2+-chelating dye dissolved in assay buffer at pH 7.4 (Hanks’ Balanced Salt Solution containing 20 mmol/L of N-2-hydroxyethylpiperazine-N’-2-ethanesulfonic acid) at room temperature for 30 min. The plates were assayed using a FlexStation 3 Microplate Reader (Molecular Devices). The fluorescence intensity was traced entirely for 80 s. The baseline of fluorescence was measured for 20 s before adding 20 µL of test compound (final concentration, 10 µmol/L). The response was expressed as percentage activation using the relative fluorescence units (RFU) (% activation = 100 × ((RFUmax − RFUbaseline)/RFUbaseline) − 100). Furthermore, the activities of each test compound against several subfamilies of TRP channels were represented as the relative enhancement of Ca^2+ influx of each positive control, indicated as follows: 20 µmol/L of allyl isothiocyanate (an agonist of TRPA1), 2 µmol/L of capsaicin (an agonist of TRPV1), 4 µmol/L of GSK1016790A (an agonist of TRPV4), and 20 µmol/L of icilin (an agonist of TRPM8). The dose–response curve was fitted to the sigmoidal dose-response equation (top, the max response of each compound), and EC50 values were calculated using GraphPad Prism 7 software (GraphPad, San Diego, CA, USA).

human TRPM8 = target: T2, human TRPM8 (Homo sapiens, UniProt Q7Z2W7); assay: Ca2+ influx assay in TRPM8-expressing T-REx-293 cells; type: cell-based; details: 10 µmol/L test compound, relative to 20 µmol/L icilin; for activation at 10 µM: T-REx-293, read-out: % of Activation Compared to Positive Control against Each Subfamily of TRP Channel TRPM8
T2 construct: Each full-length human TRPA1, TRPV1, TRPV4, and TRPM8 coding regions were introduced into a pcDNA4/TO vector; expressed in transfected cells; host or cells: T-REx-293 cells (tetracycline-induced, pcDNA4/TO vector)
Description: as §1, §2, §3

human TRPV1 = target: T3, human TRPV1 (Homo sapiens, UniProt Q8NER1); assay: Ca2+ influx assay in TRPV1-expressing T-REx-293 cells; type: cell-based; details: 10 µmol/L test compound, relative to 2 µmol/L capsaicin; for activation at 10 µM: T-REx-293, read-out: % of Activation Compared to Positive Control against Each Subfamily of TRP Channel TRPV1
T3 construct: Each full-length human TRPA1, TRPV1, TRPV4, and TRPM8 coding regions were introduced into a pcDNA4/TO vector; expressed in transfected cells; host or cells: T-REx-293 cells (tetracycline-induced, pcDNA4/TO vector)
Description: as §1, §2, §3

human TRPV4 = target: T4, human TRPV4 (Homo sapiens, UniProt Q9HBA0); assay: Ca2+ influx assay in TRPV4-expressing T-REx-293 cells; type: cell-based; details: 10 µmol/L test compound, relative to 4 µmol/L GSK1016790A; for activation at 10 µM: T-REx-293, read-out: % of Activation Compared to Positive Control against Each Subfamily of TRP Channel TRPV4
T4 construct: Each full-length human TRPA1, TRPV1, TRPV4, and TRPM8 coding regions were introduced into a pcDNA4/TO vector; expressed in transfected cells; host or cells: T-REx-293 cells (tetracycline-induced, pcDNA4/TO vector)
Description: as §1, §2, §3

[1] = Qualitative non-targeted LC-HRMS analysis of AR compounds in rat plasma after oral AR or MBST; type: in vivo; details: for AR-Treated Rat Plasma (detection of compound): rat plasma 1 h after oral 2 g/kg AR, n = 1, LC-HRMS; for MBST-Treated Rat Plasma (detection of compound): rat plasma 1 h after oral 2 g/kg MBST, n = 3, LC-HRMS
Description: Extract powders of AR or MBST were suspended in distilled water and orally administered to rats having fasted for approximately 16 h. The dose of AR was set at 2 g/kg, and the MBST doses were set at 1 and 2 g/kg. 1 g/kg MBST contained 578 µg/kg, 147 µg/kg, 226 µg/kg, 426 µg/kg asarinin, sesamin, methyl kakuol, and amide A, respectively. The doses were chosen based on a previous pharmacological study of MBST using rats.
According to previous pharmacokinetic studies of herbal medicines, many of the components were quickly absorbed into the bloodstream, thereby providing the rationale for a sampling time at 1 h. Blood was centrifuged at 1200× g at 4 °C for 30 min to obtain plasma; then, the sample was stored at −80 °C until LC-HRMS analysis. […]
The plasma samples were collected at 1 h after MBST administration in case of both the qualitative (non-targeted) analysis and the quantitative (targeted) analysis.
The plasma samples of AR- or MBST-treated rats collected at 1 h post-administration were pretreated by deproteinization using methanol before the LC-HRMS analysis as follows: 100 µL plasma sample was mixed with 500 µL methanol, and the resultant solution was vortexed for 2 min. The mixture was centrifuged at 7000× g at 4 °C for 5 min. The supernatant was dried using a centrifugal evaporator, and the dried residue was dissolved in 100 μL of the initial LC mobile phase which is composed of 0.1 vol% formic acid in water/acetonitrile (99.9/0.1, v/v) and recentrifuged at 7000× g at 4 °C for 5 min. Finally, a 5 μL aliquot of the supernatant was injected into the LC-HRMS system comprised of an Acquity Ultra-Performance Liquid Chromatography System (Waters, Milford, MA, USA) and a Xevo G2-XS quadrupole time-of-flight MS (Waters) and was chromatographically separated using an ACQUITY UPLC HSS T3 column (2.1 × 150 mm I.D., 1.8-μm particle size; Waters) with an ACQUITY UPLC HSS T3 VanGuard Pre-column (2.1 mm × 5 mm I.D., 1.8-μm particle size; Waters) at 40 °C. The mobile phase consisted of solution A (0.1% formic acid, v/v) and solution B (acetonitrile) with a gradient of solution B (0.1%, 0 min; 99%, 24 min; v/v) at a flow rate of 0.4 mL/min. The analysis of the mass spectrometer fit with an electrospray ionization probe with sensitivity mode was performed for both the positive and negative ion mode. The resolution of the mass spectrometer was set at >20,000. For MS^E experiments, two acquisition functions with different collision energies were created: a low-energy function with a collision energy of 6 eV and a high-energy function with collision energy ranging from 15 to 40 eV.

T2 sequence (Q7Z2W7 whole entry): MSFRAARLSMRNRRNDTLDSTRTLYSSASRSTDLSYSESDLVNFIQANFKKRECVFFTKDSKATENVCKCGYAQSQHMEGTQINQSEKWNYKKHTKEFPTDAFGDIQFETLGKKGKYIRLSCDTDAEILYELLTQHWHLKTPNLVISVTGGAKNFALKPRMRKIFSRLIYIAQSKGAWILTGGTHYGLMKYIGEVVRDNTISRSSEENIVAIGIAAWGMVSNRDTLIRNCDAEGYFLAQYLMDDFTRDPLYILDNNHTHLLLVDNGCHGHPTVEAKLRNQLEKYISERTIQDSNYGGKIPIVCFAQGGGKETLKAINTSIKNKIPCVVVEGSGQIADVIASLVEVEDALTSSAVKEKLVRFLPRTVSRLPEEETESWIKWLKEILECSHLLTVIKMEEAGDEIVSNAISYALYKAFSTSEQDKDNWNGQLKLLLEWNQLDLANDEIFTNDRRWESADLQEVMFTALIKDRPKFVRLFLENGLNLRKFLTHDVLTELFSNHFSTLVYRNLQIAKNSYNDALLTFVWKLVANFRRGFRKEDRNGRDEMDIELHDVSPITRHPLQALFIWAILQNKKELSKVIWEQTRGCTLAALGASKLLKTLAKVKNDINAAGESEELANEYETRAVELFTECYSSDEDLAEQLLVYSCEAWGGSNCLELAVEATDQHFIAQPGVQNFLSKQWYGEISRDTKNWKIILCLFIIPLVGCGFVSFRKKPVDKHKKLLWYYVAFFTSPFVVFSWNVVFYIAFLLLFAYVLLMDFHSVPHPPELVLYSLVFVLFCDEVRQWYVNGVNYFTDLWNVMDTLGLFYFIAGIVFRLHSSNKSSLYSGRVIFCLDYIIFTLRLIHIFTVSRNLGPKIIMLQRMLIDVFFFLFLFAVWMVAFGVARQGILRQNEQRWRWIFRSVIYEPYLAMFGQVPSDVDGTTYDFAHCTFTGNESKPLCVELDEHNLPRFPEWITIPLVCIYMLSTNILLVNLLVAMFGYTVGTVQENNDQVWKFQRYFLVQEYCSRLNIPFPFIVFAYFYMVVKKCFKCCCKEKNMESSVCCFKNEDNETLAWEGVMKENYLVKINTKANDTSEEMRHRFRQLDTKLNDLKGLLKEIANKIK
T4 sequence (Q9HBA0 whole entry): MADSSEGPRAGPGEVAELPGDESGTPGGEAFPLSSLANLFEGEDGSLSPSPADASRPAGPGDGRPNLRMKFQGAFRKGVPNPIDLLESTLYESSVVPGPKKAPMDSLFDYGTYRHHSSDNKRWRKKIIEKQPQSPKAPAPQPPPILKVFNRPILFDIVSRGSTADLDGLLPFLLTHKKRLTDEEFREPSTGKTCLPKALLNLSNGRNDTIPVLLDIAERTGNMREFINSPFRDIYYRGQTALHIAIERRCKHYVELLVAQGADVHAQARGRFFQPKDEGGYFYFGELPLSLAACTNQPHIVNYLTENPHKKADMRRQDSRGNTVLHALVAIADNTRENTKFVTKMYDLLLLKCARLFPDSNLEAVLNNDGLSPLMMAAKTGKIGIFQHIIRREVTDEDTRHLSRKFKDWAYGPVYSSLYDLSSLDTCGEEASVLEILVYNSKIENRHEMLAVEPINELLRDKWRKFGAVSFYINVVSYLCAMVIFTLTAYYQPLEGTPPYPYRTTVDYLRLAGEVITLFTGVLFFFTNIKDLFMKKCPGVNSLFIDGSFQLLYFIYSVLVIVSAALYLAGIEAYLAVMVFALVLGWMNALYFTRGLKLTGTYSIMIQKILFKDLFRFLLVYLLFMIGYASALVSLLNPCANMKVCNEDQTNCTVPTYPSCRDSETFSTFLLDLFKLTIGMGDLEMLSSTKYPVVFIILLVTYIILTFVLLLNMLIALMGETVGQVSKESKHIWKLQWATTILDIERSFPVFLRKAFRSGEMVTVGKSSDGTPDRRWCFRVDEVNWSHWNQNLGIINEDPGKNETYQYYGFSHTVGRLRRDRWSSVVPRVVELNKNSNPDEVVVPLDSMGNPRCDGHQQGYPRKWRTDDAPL
T3 sequence (Q8NER1 whole entry): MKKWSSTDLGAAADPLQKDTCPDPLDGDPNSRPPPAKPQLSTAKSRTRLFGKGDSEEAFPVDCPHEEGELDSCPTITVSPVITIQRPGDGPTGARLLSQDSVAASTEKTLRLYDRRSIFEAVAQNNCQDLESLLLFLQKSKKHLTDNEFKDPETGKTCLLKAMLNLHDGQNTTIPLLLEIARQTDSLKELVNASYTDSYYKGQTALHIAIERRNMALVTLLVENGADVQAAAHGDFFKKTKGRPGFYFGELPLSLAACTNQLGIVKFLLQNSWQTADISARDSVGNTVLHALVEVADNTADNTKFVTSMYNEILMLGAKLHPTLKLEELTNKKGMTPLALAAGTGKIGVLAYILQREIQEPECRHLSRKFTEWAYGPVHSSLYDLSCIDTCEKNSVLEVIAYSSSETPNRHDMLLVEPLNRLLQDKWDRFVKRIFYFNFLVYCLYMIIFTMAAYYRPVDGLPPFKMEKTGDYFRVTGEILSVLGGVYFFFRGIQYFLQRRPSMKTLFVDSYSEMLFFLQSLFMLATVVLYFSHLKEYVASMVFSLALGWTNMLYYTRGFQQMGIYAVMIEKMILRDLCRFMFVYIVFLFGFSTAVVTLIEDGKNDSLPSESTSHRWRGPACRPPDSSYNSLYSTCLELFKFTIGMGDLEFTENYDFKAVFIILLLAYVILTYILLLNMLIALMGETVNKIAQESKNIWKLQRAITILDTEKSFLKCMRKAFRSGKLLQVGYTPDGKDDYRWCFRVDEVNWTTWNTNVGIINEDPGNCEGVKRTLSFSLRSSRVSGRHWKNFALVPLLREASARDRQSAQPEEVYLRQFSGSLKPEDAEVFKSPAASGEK
T1 sequence (O75762 whole entry): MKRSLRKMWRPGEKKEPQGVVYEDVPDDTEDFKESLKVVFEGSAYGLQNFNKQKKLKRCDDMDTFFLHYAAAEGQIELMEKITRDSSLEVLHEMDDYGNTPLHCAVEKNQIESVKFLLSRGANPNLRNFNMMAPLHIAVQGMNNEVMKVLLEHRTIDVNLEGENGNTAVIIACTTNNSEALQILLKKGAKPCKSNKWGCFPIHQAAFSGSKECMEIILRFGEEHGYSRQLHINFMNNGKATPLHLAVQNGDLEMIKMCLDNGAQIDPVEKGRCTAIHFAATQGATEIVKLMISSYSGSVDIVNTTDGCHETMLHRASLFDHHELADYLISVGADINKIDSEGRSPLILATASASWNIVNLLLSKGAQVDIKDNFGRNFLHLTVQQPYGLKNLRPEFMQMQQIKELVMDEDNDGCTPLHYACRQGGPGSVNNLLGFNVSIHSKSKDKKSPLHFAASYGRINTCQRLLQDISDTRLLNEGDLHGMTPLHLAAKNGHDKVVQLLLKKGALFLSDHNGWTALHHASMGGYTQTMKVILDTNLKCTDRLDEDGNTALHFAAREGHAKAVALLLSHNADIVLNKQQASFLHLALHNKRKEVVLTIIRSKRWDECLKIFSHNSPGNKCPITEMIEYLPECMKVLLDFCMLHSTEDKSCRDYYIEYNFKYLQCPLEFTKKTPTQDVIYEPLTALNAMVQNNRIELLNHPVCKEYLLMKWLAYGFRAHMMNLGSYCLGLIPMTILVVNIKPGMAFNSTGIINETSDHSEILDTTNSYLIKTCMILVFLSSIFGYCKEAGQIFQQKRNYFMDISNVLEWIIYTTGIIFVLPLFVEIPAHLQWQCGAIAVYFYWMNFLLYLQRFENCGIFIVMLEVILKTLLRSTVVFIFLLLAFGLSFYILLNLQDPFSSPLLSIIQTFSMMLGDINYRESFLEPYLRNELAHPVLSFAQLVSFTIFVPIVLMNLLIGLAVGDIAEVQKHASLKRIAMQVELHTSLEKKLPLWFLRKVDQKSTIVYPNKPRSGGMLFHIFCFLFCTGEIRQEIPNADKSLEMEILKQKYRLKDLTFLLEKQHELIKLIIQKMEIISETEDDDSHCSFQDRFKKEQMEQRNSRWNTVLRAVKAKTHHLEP

| Compound | % of Activation Compared to Positive Control against Each Subfamily of TRP Channel TRPA1 (human TRPA1) [%] | % of Activation Compared to Positive Control against Each Subfamily of TRP Channel TRPM8 (human TRPM8) [%] | % of Activation Compared to Positive Control against Each Subfamily of TRP Channel TRPV1 (human TRPV1) [%] | % of Activation Compared to Positive Control against Each Subfamily of TRP Channel TRPV4 (human TRPV4) [%] | activation at 10 µM (human TRPA1) [%] | activation at 10 µM (human TRPM8) [%] | activation at 10 µM (human TRPV1) [%] | activation at 10 µM (human TRPV4) [%] | also measured |
| --- | --- | --- | --- | --- | --- | --- | --- | --- | --- |
| CCN1C[C@]2(COC)[C@H](O)C[C@H](OC)[C@@]34[C@@H]5C[C@@]6(O)[C@H](OC(=O)c7ccccc7)[C@@H]5[C@@](O)([C@@H]([C@H](OC)[C@H]23)[C@@H]14)[C@@H](O)[C@@H]6OC [Benzoylaconitine] | 3 | 3.6 | −0.2 | 0.0 | – | – | – | – | – |
| CN[C@@H](C)[C@H](O)c1ccccc1 [Ephedrine, (1R,2S)-(−)-Ephedrine, reference compound] | – | – | – | – | 3 | 3.2 | -0.5 | -0.4 | – |
| CN[C@@H](C)[C@@H](O)c1ccccc1 [Pseudoephedrine, (S,S)-(+)-pseudoephedrine, reference compound] | – | – | – | – | 4 | 2.8 | -0.2 | -0.3 | – |
| Neoline | 5 | 5.0 | −0.4 | 0.5 | – | – | – | – | – |
| O.Oc1cc(O)c2c(c1)O[C@H](c1ccc(O)c(O)c1)[C@@H](O)C2 [Catechin] | 6 | 4.0 | −0.3 | 0.3 | – | – | – | – | – |
| O=C(O)CNC(=O)c1ccccc1 [Hippuric acid] | – | – | – | – | 13 | 7.5 | 1 | 2.8 | – |
| Oc1cc(O)c2c(c1)O[C@H](c1ccc(O)c(O)c1)[C@H](O)C2 [Epicatechin] | – | – | – | – | 6 | 4.2 | 0 | 0.6 | – |
| (1R,2S)-(−)-N-methylephedrine [reference compound] | 3 | 3.6 | −0.4 | −0.1 | – | – | – | – | – |
| CC(C(O)c1ccccc1)[N+](C)(C)[O-] (stereo not shown) [Methylephedrine N-oxide] | 21 | 4.5 | 0.3 | 1.8 | – | – | – | – | – |
| O=c1cc(-c2ccc(O)cc2)oc2cc(O)c([C@@H]3O[C@H](CO)[C@@H](O)[C@H](O)[C@H]3O)c(O)c12 [Isovitexin] | – | – | – | – | 18 | 4.3 | 0.2 | 2.3 | – |
| C=C1[C@H]2C[C@@H]3[C@H]4N5C[C@@]6(C)[C@H]7[C@@H]5C[C@]3([C@@H]1O)[C@@](O)(C2)[C@]74C[C@@H](OC(=O)c1ccccc1)[C@@H]6O [Ignavine] | 2 | 1.8 | −0.2 | −0.1 | – | – | – | – | – |
| Oc1cc(O)c2c(c1)O[C@H](c1cc(O)c(O)c(O)c1)[C@H](O)C2 [Epigallocatechin] | – | – | – | – | 2 | 4.8 | -0.2 | 0.1 | – |
| Oc1ccc(C2OCC3C(c4ccc5c(c4)OCO5)OCC23)cc1O (stereo not drawn) [(7α,7′β,8α,8′α)-3,4-Methylenedioxy-3′,4′-dihydroxy-7,9′:7′,9-diepoxylignane] | – | – | – | – | – | – | – | – | AR-Treated Rat Plasma (detection of compound) [1]: + (The number of plus signs represents the sample number in which the compound was detected among AR-treated rat plasma (n = 1) and MBST-treated rat plasma (n = 3)) |
| C=CCc1ccc(OC)cc1 [Estragole] | – | – | – | – | – | – | – | – | AR-Treated Rat Plasma (detection of compound) [1]: + (The number of plus signs represents the sample number in which the compound was detected among AR-treated rat plasma (n = 1) and MBST-treated rat plasma (n = 3)) |
| COc1cc(O)cc2c1cc([N+](=O)[O-])c1c(C(=O)O)cc3c(c12)OCO3 [Aristolochic acid Iva] | – | – | – | – | – | – | – | – | AR-Treated Rat Plasma (detection of compound) [1]: + (The number of plus signs represents the sample number in which the compound was detected among AR-treated rat plasma (n = 1) and MBST-treated rat plasma (n = 3)); MBST-Treated Rat Plasma (detection of compound) [1]: + + + (The number of plus signs represents the sample number in which the compound was detected among AR-treated rat plasma (n = 1) and MBST-treated rat plasma (n = 3)) |
| CC=CC=CCCC=CC=CC(=O)NCC(C)C (single isomer, unassigned) [N-Isobutyl-2,4,8,10-dodecatetraenamide isomer] | – | – | – | – | – | – | – | – | AR-Treated Rat Plasma (detection of compound) [1]: + (The number of plus signs represents the sample number in which the compound was detected among AR-treated rat plasma (n = 1) and MBST-treated rat plasma (n = 3)); MBST-Treated Rat Plasma (detection of compound) [1]: + + + (The number of plus signs represents the sample number in which the compound was detected among AR-treated rat plasma (n = 1) and MBST-treated rat plasma (n = 3)) |
| O=c1cc(-c2ccc(O)cc2)oc2c([C@@H]3O[C@H](CO)[C@@H](O)[C@H](O)[C@H]3O)c(O)c([C@@H]3O[C@H](CO)[C@@H](O)[C@H](O)[C@H]3O)c(O)c12 [Vicenin-2] | 25 | 6.5 | 1.8 | 5.0 | – | – | – | – | – |
